Data set [1] is described as follows: Fragrance Fidelity Index (FFI) assigned by perfumers/expert graders on fabric swatches. On the set-up: species or system human; key: FFI grade on reference scale anchored by 0, 1, 2, 3 swatches. An excerpt: (§1) Blocker materials suitable for use in consumer products of the present invention are chosen for their ability to decrease malodor, while not interfering with perception of a fragrance. Material selection is done by assigning two indices to a test sample material from two reference scales in order to rank odor strengths. The two reference scales are the Fragrance Fidelity Index (FFI) scale and the Blocker Index (BI) scale. The FFI ranks the ability of the test sample material to impart a perceivable odor which could cause interference when combined with another fragrance and the BI ranks the ability of the test sample material to reduce malodor perception. The two methods for assigning the indices to a test sample on the FFI and the BI reference scales are given below.
The first step in the method for assigning an FFI to the test samples on the FFI reference scale is to create the FFI reference swatches. […] Fabric swatches for this test are white knit polycotton (4 inch×4 inch) swatches from EMC ordered as PC 50/50. The supplier is instructed to strip the swatches first, stripping involves washing twice with a fragrance-free detergent and rinsing three times.
Pipette 13 μL of each of the three solutions into the middle of a clean swatch resulting in about a 1 cm diameter of the solution in the middle of the swatch. This will create a sensory scale of three swatches with three different odor levels based on the concentration of the solution pipetted onto the swatch. After drying for 30 minutes in a vented hood, the swatches are wrapped in aluminum foil to prevent odor contamination to the treated swatch. A clean untreated swatch is also included as the lowest anchor point of reference for odor strength on the FFI scale. The FFI reference scale swatches should be used within 0.5 to 12 hours and discarded after 12 hours. The swatches are used as scale anchor points when graders evaluate a test sample(s) and are assigned a Fragrance Fidelity Index (FFI) as show in Table 7.
The perfumer/expert panel is asked to rank order swatches according to a scale between 0 and 3.
The reference swatches represent the 0, 1, 2, and 3 FFIs on the FFI reference scale, Table 9. The expert grader should familiarize them self with the strength of the odor on the FFI reference swatches by sniffing each one starting at 0 (the lowest odor strength) and ending at 3 (the highest odor strength). This should be done prior to evaluating the test sample material treated swatch.
A clean swatch is treated with 13 μL of a known concentration of a test sample material resulting in an about 1 cm of the solution on the clean swatch. Just like the reference swatches, the test sample material swatch is dried in a vented hood for 30 minutes and then wrapped in aluminum foil to prevent contamination. The test material swatches and the FFI reference swatches should be made within 2 hours of each other. The test material swatch must be used within 0.5 to 12 hours and discarded after 12 hours.
At least two perfumers/expert graders are used to assign an FFI grade to a test sample. The perfumer/expert grader smells the test sample swatch by holding that swatch 1 inch from their nose with their nose centered over the area where the test sample was pipetted on to the fabric and then assigns the test sample an FFI grade using the FFI reference scale anchor swatches as references. In cases where the test sample material is graded greater than 3, the test material is not a blocker material or the concentration of the material needs to be lowered and reevaluated to determine if a lower level has a malodor blocker functionality.

Data set [2] in a line: Blocker Index (BI) assigned by perfumers/expert graders on isovaleric acid swatches. On the set-up: species or system human; key: BI odor strength 0 (lowest, clean swatch) to 3 (highest).
Description: as §1
The first step in the method for assigning a BI to a test sample material on the BI reference scale is to create the BI reference swatches. […] Fabric swatches for this test are white knit polycotton (4 inch×4 inch) swatches from EMC ordered as PC 50/50. The supplier is instructed to strip the swatches first, stripping involves washing twice with a fragrance-free detergent and rinsing three times.
The BI scale contains one clean swatch with no malodor applied. […] These solutions are pipetted to the middle of the swatches. […] After drying for 30 minutes in a vented hood, the swatches are wrapped in aluminum foil to prevent odor contamination to the treated swatch. A clean untreated swatch is also included as the lowest anchor point of reference for malodor strength on the BI scale. The BI reference scale swatches should be used within 0.5 to 12 hours and discarded after 12 hours. The swatches are used as scale anchor points when graders evaluate a test sample(s) and are assigned a Blocker Index (BI) as show in Table 12.
The perfumer/expert grader is asked to rank order swatches according to a scale between 0 and 3.
The reference swatches represent the 0, 1, 2, and 3 BIs on the BI reference scale, Table 12. The expert grader should familiarizes him/herself with the strength of the odor on the BI reference swatches by sniffing each one starting at 0 (the lowest odor strength) and ending at 3 (the highest odor strength). This should be done prior to evaluating the swatch treated with the test material.
To evaluate the BI, the test material is applied to a malodorous swatch to determine how well the test material blocks the malodor. […] After drying the malodorous swatch a known concentration of test material solution, between 1 ppm and 100 ppm is pipetted onto the malodorous swatch. […] It is sometimes necessary to evaluate several levels of the test material between about 1 and about 100 ppm to determine the BI.
At least two perfumers/expert graders are used to assign the BI to the test sample. […] The test sample swatch is assigned a BI at or between numbers on the BI in table.

Data set [3] in a line: Liquid dish neat product liquid-air partition coefficient. The class given is physicochemical.
The mark [4] stands for this setting: Conc 50 ppm test material on swatch.
The mark [5] stands for this setting: Conc 50 ppm test material on isovaleric acid swatch.

This note sets out measurements from patent US20160090556A1, “PRODUCTS COMPRISING MALODOR REDUCTION MATERIALS” (The Procter & Gamble Company, priority 2014, published 2016).

As for `CCC(O)COC1CCCCC1C(C)(C)C` (stereo not drawn) [Material 677], the figures for the FFI in data set [1] (Conc 10 ppm test material on swatch) and in data set [1] (setting [4]) were 0 and 1.8, respectively. The figures for the BI in data set [2] (Conc 10 ppm test material on isovaleric acid swatch) and in data set [2] (setting [5]) were 2.3 and 2.0, respectively. In addition, the “Log of liquid dish neat product liquid-air partition coefficient (Comment Code K/L)” value in data set [3] is “K (Log of liquid dish neat product liquid-air partition coefficient greater than or equal to −7)”.
On to `C=C1CCC2OC2(C)CCC2C1CC2(C)C` (stereo not drawn) [Material 1148], for which the FFI in data set [1] (setting [4]) came to 0.5. For the same compound, the BI in data set [2] (setting [5]) amounted to 2.3. Also, the “Comment Code: Log of liquid dish neat product liquid-air partition coefficient” value is on record as “K (Log of liquid dish neat product liquid-air partition coefficient greater than or equal to −7)” in data set [3] (code letters K, L) and “K (Log of liquid dish neat product liquid-air partition coefficient greater than or equal to −7)” in data set [3] (codes K/L of the Comment Code, Table 1).
